Data reported in PubChem BioAssay AID2060614 (Molecular Pharmacology Branch, DTP, NCI, 2025).
Where “and” joins values, the source holds several entries; their conditions need not be identical. Identical values can stand only once.

Tested on: 598228-144-R-J1-PDC complex spheroids, viability
Assay: Anticancer human tumor 598228-144-R-J1-PDC patient-derived serous endometrial adenocarcinoma cell line growth inhibition [CLK]
Conditions: for viability, T/C: stronger effect = lower value
How it was run: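 Patient-derived tumor cells grown as complex spheroids with HUVEC endothelial cells and mesenchymal stem cells, treated with drug combinations. Concentrations descend in half-log steps from near clinical Cmax, or from 10 microM if Cmax unknown.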

[1] = curve of first compound, second compound 0.0316 µM
[2] = curve of first compound, second compound 0.1 µM
[3] = curve of first compound, second compound 0.316 µM
[4] = curve of first compound, second compound 1 µM
[5] = curve of first compound, second compound 3.16 µM
[6] = curve of first compound, second compound 10 µM
[7] = second compound 0.0316 µM, first compound 0.0316 µM
[8] = second compound 0.0316 µM, first compound 0.1 µM
[9] = second compound 0.0316 µM, first compound 0.316 µM
[10] = second compound 0.0316 µM, first compound 1 µM
[11] = second compound 0.0316 µM, first compound 3.16 µM
[12] = second compound 0.0316 µM, first compound 10 µM
[13] = second compound 0.1 µM, first compound 0.0316 µM
[14] = second compound 0.1 µM, first compound 0.1 µM
[15] = second compound 0.1 µM, first compound 0.316 µM
[16] = second compound 0.1 µM, first compound 1 µM
[17] = second compound 0.1 µM, first compound 3.16 µM
[18] = second compound 0.1 µM, first compound 10 µM
[19] = second compound 0.316 µM, first compound 0.0316 µM
[20] = second compound 0.316 µM, first compound 0.1 µM
[21] = second compound 0.316 µM, first compound 0.316 µM
[22] = second compound 0.316 µM, first compound 1 µM
[23] = second compound 0.316 µM, first compound 3.16 µM
[24] = second compound 0.316 µM, first compound 10 µM
[25] = second compound 1 µM, first compound 0.0316 µM
[26] = second compound 1 µM, first compound 0.1 µM
[27] = second compound 1 µM, first compound 0.316 µM
[28] = second compound 1 µM, first compound 1 µM
[29] = second compound 1 µM, first compound 3.16 µM
[30] = second compound 1 µM, first compound 10 µM
[31] = second compound 3.16 µM, first compound 0.0316 µM
[32] = second compound 3.16 µM, first compound 0.1 µM
[33] = second compound 3.16 µM, first compound 0.316 µM
[34] = second compound 3.16 µM, first compound 1 µM
[35] = second compound 3.16 µM, first compound 3.16 µM
[36] = second compound 3.16 µM, first compound 10 µM
[37] = second compound 10 µM, first compound 0.0316 µM
[38] = second compound 10 µM, first compound 0.1 µM
[39] = second compound 10 µM, first compound 0.316 µM
[40] = second compound 10 µM, first compound 1 µM
[41] = second compound 10 µM, first compound 3.16 µM
[42] = second compound 10 µM, first compound 10 µM
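Note: spheroids exposed to compounds for seven days before readout.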
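Throughout, for viability, T/C: 100% = DMSO vehicle control wells.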

NC(=O)C(=Cn1cnc(-c2cc(C(F)(F)F)cc(C(F)(F)F)c2)n1)c1cncnc1
viability, T/C (compound 0.00949 µM): 89% and 103%
viability, T/C (compound 0.03 µM): 80.9% and 101%
viability, T/C (compound 0.0949 µM): 52.1% and 86.2%
viability, T/C (compound 0.3 µM): 32% and 38.9%
viability, T/C (compound 0.949 µM): 15% and 30.6%
viability, T/C (compound 3 µM): 18.1% and 21.5%
IC50 (curve of compound): 114 nM and 232 nM

CC(=O)O[C@H]1C(=O)[C@@]2(C)[C@H]([C@H](OC(=O)c3ccccc3)[C@]3(O)C[C@H](OC(=O)[C@H](O)[C@@H](NC(=O)c4ccccc4)c4ccccc4)C(C)=C1C3(C)C)[C@]1(OC(C)=O)CO[C@@H]1C[C@@H]2O + CN1CCN(c2cc(C(=O)Nc3cc4cc(-c5cnn(C)c5)ccc4cn3)ccn2)CC1
IC50 [1]: < 31.6 nM
IC50 [2]: > 10000 nM
IC50 [3]: < 31.6 nM
IC50 [4]: < 31.6 nM
IC50 [5]: < 31.6 nM
IC50 [6]: < 31.6 nM
viability, T/C [7]: 40.8%
viability, T/C [8]: 44.8%
viability, T/C [9]: 32.3%
viability, T/C [10]: 34.3%
viability, T/C [11]: 33.1%
viability, T/C [12]: 37.7%
viability, T/C [13]: 72.7%
viability, T/C [14]: 61.2%
viability, T/C [15]: 58.8%
viability, T/C [16]: 64.5%
viability, T/C [17]: 51.6%
viability, T/C [18]: 51.1%
viability, T/C [19]: 19%
viability, T/C [20]: 15.1%
viability, T/C [21]: 20.1%
viability, T/C [22]: 14.2%
viability, T/C [23]: 18%
viability, T/C [24]: 18.5%
viability, T/C [25]: 1.6%
viability, T/C [26]: 1.9%
viability, T/C [27]: 4.17%
viability, T/C [28]: 1.92%
viability, T/C [29]: 2.39%
viability, T/C [30]: 1.8%
viability, T/C [31]: 1.6%
viability, T/C [32]: 3.09%
viability, T/C [33]: 2.8%
viability, T/C [34]: 1.31%
viability, T/C [35]: 1.95%
viability, T/C [36]: 2.83%
viability, T/C [37]: 2.83%
viability, T/C [38]: 0.86%
viability, T/C [39]: 2.92%
viability, T/C [40]: 1.09%
viability, T/C [41]: 2.45%
viability, T/C [42]: 2.11%

CC(CO)NC(=O)c1cc(-c2ccc(Cl)cc2)nn(-c2cnn(C)c2)c1=O (configuration not stated)
viability, T/C (compound 0.0316 µM): 92.9% and 110%
viability, T/C (compound 0.1 µM): 89.4% and 109%
viability, T/C (compound 0.316 µM): 98.2% and 116%
viability, T/C (compound 1 µM): 98.4% and 106%
viability, T/C (compound 3.16 µM): 76.6% and 111%
viability, T/C (compound 10 µM): 89.9% and 73.9%
IC50 (curve of compound): > 10000 nM

Nc1ccccc1NC(=O)c1ccc(CNC(=O)OCc2cccnc2)cc1 + CNC(=O)c1ccc(Nc2nc(OC3CCCC3)c3c(-c4ccc5nc(C)oc5c4)c[nH]c3n2)c(OC)c1
IC50 [1]: 1890 nM
IC50 [2]: 1930 nM
IC50 [3]: 2000 nM
IC50 [4]: 2200 nM
IC50 [5]: 1330 nM
IC50 [6]: 1020 nM
viability, T/C [7]: 115%
viability, T/C [8]: 105%
viability, T/C [9]: 101%
viability, T/C [10]: 83%
viability, T/C [11]: 23.1%
viability, T/C [12]: 12.2%
viability, T/C [13]: 111%
viability, T/C [14]: 97.8%
viability, T/C [15]: 91.4%
viability, T/C [16]: 79.7%
viability, T/C [17]: 28.4%
viability, T/C [18]: 7.48%
viability, T/C [19]: 111%
viability, T/C [20]: 105%
viability, T/C [21]: 93%
viability, T/C [22]: 66.6%
viability, T/C [23]: 39%
viability, T/C [24]: 4.74%
viability, T/C [25]: 110%
viability, T/C [26]: 81.9%
viability, T/C [27]: 88.7%
viability, T/C [28]: 65%
viability, T/C [29]: 45.6%
viability, T/C [30]: 6.12%
viability, T/C [31]: 91.6%
viability, T/C [32]: 86.5%
viability, T/C [33]: 70.2%
viability, T/C [34]: 55.1%
viability, T/C [35]: 34.4%
viability, T/C [36]: 4.38%
viability, T/C [37]: 100%
viability, T/C [38]: 88.9%
viability, T/C [39]: 73.3%
viability, T/C [40]: 50.5%
viability, T/C [41]: 25.8%
viability, T/C [42]: 4.15%

C=CC(=O)Nc1cc(Nc2nccc(-c3cn(C)c4ccccc34)n2)c(OC)cc1N(C)CCN(C)C
viability, T/C (compound 0.000949 µM): 106% and 86.2%
viability, T/C (compound 0.003 µM): 95.3% and 97.7%
viability, T/C (compound 0.00949 µM): 108% and 95.7%
viability, T/C (compound 0.03 µM): 93.7% and 93.5%
viability, T/C (compound 0.0949 µM): 99.3% and 92.6%
viability, T/C (compound 0.3 µM): 92.1% and 94.7%
IC50 (curve of compound): > 300 nM

NC(=O)C(=Cn1cnc(-c2cc(C(F)(F)F)cc(C(F)(F)F)c2)n1)c1cncnc1 + CN1CCN(c2cc(C(=O)Nc3cc4cc(-c5cnn(C)c5)ccc4cn3)ccn2)CC1
IC50 [1]: 236 nM
IC50 [2]: 344 nM
IC50 [3]: < 9.49 nM
IC50 [4]: < 9.49 nM
IC50 [5]: < 9.49 nM
IC50 [6]: < 9.49 nM
viability, T/C (second compound 0.0316 µM, first compound 0.00949 µM): 108%
viability, T/C (second compound 0.0316 µM, first compound 0.03 µM): 109%
viability, T/C (second compound 0.0316 µM, first compound 0.0949 µM): 72.9%
viability, T/C (second compound 0.0316 µM, first compound 0.3 µM): 47.6%
viability, T/C (second compound 0.0316 µM, first compound 0.949 µM): 29.3%
viability, T/C (second compound 0.0316 µM, first compound 3 µM): 37.8%
viability, T/C (second compound 0.1 µM, first compound 0.00949 µM): 114%
viability, T/C (second compound 0.1 µM, first compound 0.03 µM): 87.4%
viability, T/C (second compound 0.1 µM, first compound 0.0949 µM): 76.9%
viability, T/C (second compound 0.1 µM, first compound 0.3 µM): 47.7%
viability, T/C (second compound 0.1 µM, first compound 0.949 µM): 38.9%
viability, T/C (second compound 0.1 µM, first compound 3 µM): 9.13%
viability, T/C (second compound 0.316 µM, first compound 0.00949 µM): 12.9%
viability, T/C (second compound 0.316 µM, first compound 0.03 µM): 6.08%
viability, T/C (second compound 0.316 µM, first compound 0.0949 µM): 0.74%
viability, T/C (second compound 0.316 µM, first compound 0.3 µM): 0.62%
viability, T/C (second compound 0.316 µM, first compound 0.949 µM): 2.45%
viability, T/C (second compound 0.316 µM, first compound 3 µM): 1.39%
viability, T/C (second compound 1 µM, first compound 0.00949 µM): 0.59%
viability, T/C (second compound 1 µM, first compound 0.03 µM): 0.85%
viability, T/C (second compound 1 µM, first compound 0.0949 µM): 1.1%
viability, T/C (second compound 1 µM, first compound 0.3 µM): 1.03%
viability, T/C (second compound 1 µM, first compound 0.949 µM): 0.66%
viability, T/C (second compound 1 µM, first compound 3 µM): 0.41%
viability, T/C (second compound 3.16 µM, first compound 0.00949 µM): 1.32%
viability, T/C (second compound 3.16 µM, first compound 0.03 µM): 2.21%
viability, T/C (second compound 3.16 µM, first compound 0.0949 µM): 2.27%
viability, T/C (second compound 3.16 µM, first compound 0.3 µM): 1.81%
viability, T/C (second compound 3.16 µM, first compound 0.949 µM): 4.57%
viability, T/C (second compound 3.16 µM, first compound 3 µM): 0.46%
viability, T/C (second compound 10 µM, first compound 0.00949 µM): 0.86%
viability, T/C (second compound 10 µM, first compound 0.03 µM): 0.87%
viability, T/C (second compound 10 µM, first compound 0.0949 µM): 1.32%
viability, T/C (second compound 10 µM, first compound 0.3 µM): 0.79%
viability, T/C (second compound 10 µM, first compound 0.949 µM): 1.73%
viability, T/C (second compound 10 µM, first compound 3 µM): 0.39%
